Experimental data taken from patent US10077436B2, “Beta-glucosidase enzymes for increased biomass saccharification” (Edeniq, Inc., priority 2013, dated 2018).

Molecular target: T1, Aspergillus niger beta-glucosidase, wild type, yEdQ745-BG (CAB75696.1, SEQ ID NO:2) (Aspergillus niger, UniProt Q9P8F4)
T1 construct: strain yEdQ745
T1 sequence (Q9P8F4 20-860): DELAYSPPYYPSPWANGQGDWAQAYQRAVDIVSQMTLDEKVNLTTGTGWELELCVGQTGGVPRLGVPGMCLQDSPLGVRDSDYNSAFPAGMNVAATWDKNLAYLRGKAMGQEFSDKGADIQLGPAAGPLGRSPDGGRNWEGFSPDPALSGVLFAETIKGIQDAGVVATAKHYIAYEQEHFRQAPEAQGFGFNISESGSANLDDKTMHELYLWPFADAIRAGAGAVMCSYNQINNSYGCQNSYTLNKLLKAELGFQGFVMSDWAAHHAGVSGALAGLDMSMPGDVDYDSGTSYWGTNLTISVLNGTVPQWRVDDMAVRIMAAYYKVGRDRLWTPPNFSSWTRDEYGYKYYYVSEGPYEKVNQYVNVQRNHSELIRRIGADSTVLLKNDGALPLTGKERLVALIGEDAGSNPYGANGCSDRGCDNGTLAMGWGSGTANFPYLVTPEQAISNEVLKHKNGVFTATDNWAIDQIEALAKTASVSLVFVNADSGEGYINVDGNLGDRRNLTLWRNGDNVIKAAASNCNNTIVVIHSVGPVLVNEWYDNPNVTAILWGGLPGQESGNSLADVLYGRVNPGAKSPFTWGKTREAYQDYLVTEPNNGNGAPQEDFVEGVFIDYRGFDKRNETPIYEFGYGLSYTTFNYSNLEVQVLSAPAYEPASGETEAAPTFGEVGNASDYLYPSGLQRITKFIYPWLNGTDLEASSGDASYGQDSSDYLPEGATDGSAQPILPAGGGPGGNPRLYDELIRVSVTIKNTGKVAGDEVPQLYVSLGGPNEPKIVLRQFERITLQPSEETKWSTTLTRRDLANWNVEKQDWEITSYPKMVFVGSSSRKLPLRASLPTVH
Assay: BG kinetics, pNPG hydrolysis assay with glucose as competitive inhibitor, yEdQ745-BG
Assay type: biochemical
From the text: Accordingly, in some embodiments, the unmodified form of the beta-glucosidase is a wild-type or a naturally occurring beta-glucosidase, such as, for example, a fungal beta-glucosidase. The full nucleic acid and amino acid sequence for numerous fungal beta-glucosidases are available. The amino acid sequence of A. niger beta-glucosidase is provided as SEQ ID NO:2. Thus, in some embodiments, the unmodified beta-glucosidase is from an Aspergillus species. In some embodiments, the unmodified beta-glucosidase is from a Trichoderma species.
The beta-glucosidase (BG) gene from Aspergillus niger (Accession #CAB75696.1) was integrated into the TR3 yeast background at the T4U3 genomic site.
The BG-expressing strains were subsequently used in corn mash and corn stover simultaneous saccharification and fermentation (SSF) studies using flask scale and pilot plant fermentations. […]
BG activity assay using pNPG is one of the two commonly used standard assays to measure BG activity, which utilizes hydrolysis of p-nitrophenyl-β-D-glucopyranoside (pNPG) by BG into a yellow colored product, p-nitrophenol (pNP), that has a strong absorbance at 405 nm. […] The reaction was then terminated by adding 100 μL of 0.25 M sodium carbonate, and the amount of pNP produced was determined by measuring absorbance at 405 nm using a predetermined calibration curve. […]

OC[C@H]1OC(O)[C@H](O)[C@@H](O)[C@@H]1O (some centres unmarked) [glucose]
Ki: 2130 ± 180 µM
Km/Ki (inhibitor influence, Km for pNPG / Ki for glucose, pH 5.0, 50° C.): 0.30
